The record followed here is US4221794A, “Method of imparting immunomodulating and antiviral activity” (Newport Pharmaceuticals International, Inc., priority 1979, dated 1980).

The subject of one data set is spleen cells. Nature of the data set: In vivo treatment of mice: effect on in vitro Con A stimulation of spleen cell proliferation. Also noted: species or system male Balb/C mice. Here is the method: The purpose of this study was to determine the effects of in vivo treatment of mice with the compounds NPT 15392 and 15410 on the subsequent activity of spleen cells isolated from these animals and evaluated in vitro for their proliferative response to the mitogen, Concanavalin A (Con A).
Nine male Balb/C mice, 8-9 weeks old, weighing 18-20 gms were divided into three groups. One group was treated twice daily (for 1 day), in the morning and afternoon, with an oral dose of NPT 15392 at 10 mg/kg. The second group was similarly treated with NPT 15410 at 20 mg/kg. A third group, dosed with saline served as a placebo control.
The following day, each group was sacrificed and the spleens removed and pooled. The spleens were minced and the cells washed in RPMI-1640 medium (Grand Island Biologicals) supplemental with 2 mm glutamine and antibiotics. The cell concentration of each preparation was determined by a Coulter counter and adjusted to 5×10^6 cells/ml with RPMI medium.
Microtiter assays were carried out in 0.2 ml incubations, containing 5×10^5 cells and Con A or Con A and compounds at the indicated concentrations. All assays were performed with 6 replicates and compared with a blank assay containing only cells. The assay plates were incubated at 37° in 5% CO2 for 4 days. During the final 18-20 hours of incubation, 0.5 ml of ^3 HTdR (10 μCi/ml, 6 Ci /m mole) were added to each culture. The cultures were harvested with a multiple automatic sample harvester (MASH) unit and the incorporated ^3 HTdR determined with a Beckman LS 8000 liquid scintillation counter, as a measure of cell proliferation. The results are tabulated as the ratio of the activity in the Con A or Con A and compound treated cultures to the blank cultures.

The next data set concerns immune response. Nature of the data set: Immunomodulating activity (overall). In kind it is cell-based. The source says: The following three assay procedures are used to evaluate the ability of the test substances to modulate the activity of several classes of cells in the immune system. In these systems it is possible to identify both immunopotentiating activity (evidence by an enhancement of the parameter examined) as well as immunosuppressant activity (evidenced by an inhibition of the parameter examined).
Table 4 above presents the results of an evaluation of a number of these subject compounds as potentiators of the immune response. Three different test systems were used. The first involves a measure of the ability of the test compound to enhance the ability of mouse lymphocytes to proliferate in response to a plant mitogen (Con A). The second involves measuring the ability of the test compounds to enhance human lymphocyte proliferation in response to a second plant mitogen (PHA). The third system measures the ability of these test substances to enhance macrophage proliferation in response to a natural lymphokine (MMF, Macrophage Mitogenic Factor).

In another data set the test system is Herpes virus. Kind of data set: Anti-herpes activity, plaque assay (Table 3). In kind it is cell-based, herpes hominis type 2 (Vero cells). The note with it: for Plaques (PFU) Percent Inhibition: Test 15-150 μg/ml; for reduce plaque formation caused by Herpes Simplex virus: concentrations less than 100 μg/ml. The source says:
Anti-Herpes Activity--(Plaque Assay)
The infection of tissue culture cells by Herpes virus causes cell lysis. After a period of time these lysed cells are visualized as a tiny clear area (plaque) on a layer of cells. The incorporation of a test substance into the media will reduce the number of plaques if it is capable of preventing virus replication. The method is as follows:
There was employed herpes hominis type 2 purchased from American Type Culture Collection (ATCC), Bethesda, Maryland, ATCC #VR 540, Lot 3D. The lyophilized viral suspension was reconstituted with 1 ml sterile distilled H2 O. The virus was passed twice through HeLa-cell monolayers. The tissue-culture supernates were pooled, dispensed in 1-ml aliquots, and stored at -70° C.
Vero cells in log-growth phase were subcultured at a concentration of 1×10^5 cells/ml in 50-ml Falcon flasks in Eagle's Minimum Essential Medium (MEM), supplemented with 10% fetal calf serum (FCS) and antibiotics. Media were changed the day following planting. The Vero monolayers reached confluence by the second day after planting and with the cells in log phase, the cultures were used for the plaque assay.
Culture media were poured off and the monolayers were wahsed once with phosphate-buffered saline (PBS). Several different dilutions of the working-stock virus suspension were prepared and each culture flask was infected with 0.5 ml of one of the virus dilutions added to FCS-free medium. […] Controls were prepared with medium devoid of drug.
Virus adsorption was allowed to proceed for 2 hours at 37° C., during which time the cultures were rocked gently every 15 minutes. Then Media were poured off and the monolayers were washed once with 10 ml PBS.
Agarose was prepared at a concentration of 6% w/v in 50 ml PBS. A stock medium of MEM supplemented with 2% FCS was prepared. Drug was added to some of the stock medium at 150 μg/ml. The three solutions were maintained at 47° C. In addition, a 1:10 dilution of pooled human anti-herpes sera was readied. Just before the start of treatment, 15 ml of the agarose solution were added to 85 ml of medium. Another 15 ml of agarose were added to 85 ml of drug-medium.
Each of the washed monolayers in one group of experiments was treated either with 5 ml of agarose-medium or with 5 ml of agarose-drug-medium. In another group of experiments, each monolayer was treated either with 0.2 ml of anti-herpes sera in 5 ml of stock medium, or with 0.2 ml of anti-herpes sera in 5 ml of drug-medium. The anti-herpes sera were used in place of agarose to localize plaques by neutralizing any free virus in the medium. The flasks were allowed to remain at room temperature for 5 minutes, after which they were incubated at 37° C. for 2 days. Triplicate cultures were used for most treatment groups.
Ten ml of PBS then were added to each flask. Overlays were shaken gently and then were poured out of the flasks. The monolayers were stained with a solution 0.5% w/v crystal violet in 50% methanol in triple-distilled H2 O.
Plaques were counted either directly by transmitted fluorescent light and macroviewing, or by the use of light microscopy for microplaques. Microplaques were counted by averaging three fields per experimental group under 150×magnification.

In data set [1] the test system is human peripheral blood lymphocytes. Nature of the data set: Mitogen (PHA) induced human lymphocyte proliferation. In kind it is cell-based. The conditions noted are these: plus = immunostimulating, minus = immunoinhibiting, 0 = neither.
The nature of another data set: Toxicity in mice. The note with it: for LD50: mouse, in vivo.
A further data set deals with influenza virus. Kind of data set: Anti-influenza activity (overall). In kind it is cell-based, several strains of A and B sub-types. The conditions noted are these: for inhibit the replication of different strains of influenza virus (number of strains): concentrations ranging from 1-150 μg/ml.
The mark [2] stands for this setting: Con A 5 μg/ml (suboptimal), oral 15392 10 mg/kg, 15410 20 mg/kg.

Each structure is given as a SMILES string. Entries after “also recorded” stand apart in the source; their conditions may differ.

In the case of `CCCCCC[C@H]([C@H](C)O)n1cnc2c(=O)[nH]cnc21` (relative stereo) [NPT 15392, ERYTHRO-9-(2-HYDROXY-3-NONYL)HYPOXANTHINE], the “response of spleen cells to Con A after in vivo treatment (in words)” value (“response of spleen cells” below) is on record as “increases the subsequent response of the spleen cells” in the data set with spleen cells (setting [2]) and “No significant differences” in the data set with spleen cells (Con A 10 μg/ml (more optimal)). The “potentiation of the immune response (in words)” value with immune response is listed as “potentiation of the immune response has been observed”. For the same compound, in the data set on Herpes virus, the “inhibition of replication of Herpes Simplex virus (in words)” value is given as “shown to inhibit the replication of Herpes Simplex virus”. For the same compound, the “Plaques (PFU) Percent Inhibition” value with Herpes virus is listed as 98%. Moreover, the “reduce plaque formation caused by Herpes Simplex virus” value in the data set with Herpes virus is recorded as more than 90%. The “Maximum Percent Change, Mitogen Induced (PHA) Human Lymph. Prolif.” value in data set [1] (1.0-10 (unit not given)) is on record as 20%; in data set [1] (10-100 (unit not given)), -50%; in data set [1] (.01-1.0 (unit not given)) it was 11-15%. Moreover, the drug related mortality entry in “Toxicity in mice” (mice, doses of 1000 mg/kg) is “no drug related mortality was noted”. In the data set on influenza virus (compound by itself), the “anti-influenza activity (in words)” value was “significant anti-influenza activity”. The “inhibit the replication of different strains of influenza virus (number of strains)” value in the data set with influenza virus is “at least 4 different strains”.
`CCCCCC[C@H]([C@H](C)O)n1cnc2c(=O)[nH]cnc21` (relative stereo) [NPT 15410]: in the data set with spleen cells (setting [2]), the “response of spleen cells” value is on record as “increases the subsequent response of the spleen cells”. Further, in the data set with spleen cells (Con A 10 μg/ml (more optimal)), the “response of spleen cells” value is “No significant differences”. The “potentiation of the immune response (in words)” value with immune response is given as “potentiation of the immune response has been observed”. Also, in the data set on immune response (salt compared with parent compound), the “Potentiation of immunopotentiation by DIP.PAcBA salt” value is given as “Yes”. Further, in the data set on Herpes virus, the “inhibition of replication of Herpes Simplex virus (in words)” value is reported as “shown to inhibit the replication of Herpes Simplex virus”, the “Plaques (PFU) Percent Inhibition” value is reported as 98% and the “reduce plaque formation caused by Herpes Simplex virus” value is given as more than 90%. In addition, the “Maximum Percent Change, Mitogen Induced (PHA) Human Lymph. Prolif.” value in data set [1] (1.0-10 (unit not given)) is reported as 60%. For the same compound, the 50% lethal dose (LD50) in “Toxicity in mice” is 4300 mg/kg. The same compound registered a 50% lethal dose (LD50) in the data set “Toxicity in mice” (sc) of 4900 mg/kg. Besides, in the data set on influenza virus, the “potentiation of anti-influenza activity by DIP.PAcBA salt” value was “does not potentiate the anti-influenza activity; also recorded: equally active” and the “inhibit the replication of different strains of influenza virus (number of strains)” value was “at least 4 different strains”.

In general, LD50 refers to the dose expected to kill half of the subjects tested.
